The results in this text go back to patent publication US4406879A, “Phthalazinol preparation” (Nippon Kayaku Kabushiki Kaisha, priority 1979, dated 1983).

Series [1] in a line: Oral absorption and blood content of Phthalazinol (first pass effect). Format: in vivo.
A short description of series [2]: Water-solubility and wettability of Phthalazinol. Format: physicochemical.
The next series relates to alcohol dehydrogenase. The series is described as follows: Metabolism of Phthalazinol with alcohol dehydrogenase in the living body. Format: in vivo. Conditions: before it arrives at the blood circulation system.

≈ marks a conversion by molar mass, not a printed value.

For orientation: solubility means how much of the substance goes into solution per volume. The low end stands for a poorly soluble substance, the high end for a readily soluble substance. Take `CCOC(=O)c1c(C)cc2c(CO)n[nH]c(=O)c2c1C` [Phthalazinol, 6,8-Dimethyl-7-ethoxycarbonyl-4-hydroxymethyl-1-phthalazone]: in series [1] (Phthalazinol subjected to the tests at present), the absorption velocity entry is “low absorption velocity”. This compound also returned a Fa in series [1] (in vivo, po, administered orally) of approximately 100%. In series [1] (theoretical value assumes no metabolism and complete absorption), the “actual Phthalazinol content of the blood relative to the theoretical value” is given as “several tenths”. In addition, the wettability with water result in series [2] was “low wettability”. Besides, in series [2] (water at 25° C.), the solubility is approximately 200 µg/mL (≈ 724 µM). The “metabolism (4-hydroxymethyl converted into inactive 4-carboxyl group)” value in the series with alcohol dehydrogenase is reported as “readily metabolized”.
